Test [1] has as its system PKCalpha. Put plainly: PKCalpha phosphorylation in SKOV3 cells, immunoblot. The format is cell-based. How it is done:
Cells were detached from their culture vessels by brief trypsinization, suspended in complete media and centrifuged at 250×g for 10 min at room temperature. The cell pellets were suspended in Dulbeco's phosphate buffered saline (DPBS) and re-centrifuged for a total of three washes. The cells were then re-suspended at 3.33E5/ml in 24 ml of either RPMI containing 0.5% BSA (Sigma Chem. Co. #A0336) (RPMI/BSA) or the conditioned media of growing NIH3T3 fibroblasts (10% FBS in DMEM) supplemented with 10 ng/ml vascular endothelial growth factor (VEGF) (CMN). The cells were then treated with or without 100 ug/ml soluble hyaluronic acid (HA; human umbilical, Calbiochem #385902) for 30 min at 37° C. under 5% CO2. Aliquots representing 2E6 cells were then plated into 10 cm culture dishes and A6 added to yield final concentrations of 0, 10, 100 and 1000 nM. The cells were cultured overnight (18 hr) at 37° C. under 5% CO2.
After 18 hr of treatment, the media were aspirated from the 10 cm dishes and saved. The plates were washed 3 times with 4 ml of ice-cold DPBS which were pooled with the reserved non-adherent cells. The non-adherent cells were centrifuged at 250×g for 10 min at 4° C., washed twice with cold DPBS, drained and lysed in 50 ul of cold RIPA buffer (ThermoScientific #89901) containing cocktails of broad spectrum phosphatase inhibitors (Calbiochem #524625; used at 2× final concentration) and protease inhibitors (Sigma #P8340) (RIPA/inh.). The 10 cm dishes were drained of remaining wash and the adherent cells lysed by scraping in 200 μL of cold RIPA/inh. For each test condition, the lysates of the non-adherent and adherent populations were combined, vortexed and then centrifuged at 14,000 rpm at 4° C. for 20 min. Aliquots of the cleared lysates were frozen at −80° C. immediately. A small aliquot was reserved for total protein analysis using a BCA Protein Assay Kit (Calbiochem #71285-3).
Samples representing 20 μg of total protein of each lysate were solubilized in the presence of 50 mM Tris pH 6.8, 10% glycerol, 2% SDS and 100 mM DTT for 5 min at 95° C. and then loaded onto 10-20% acrylamide gels (BioRad #345-0044, Tris-HCl, 1 mm, 26 well, 15 μL/well). Electrophoresis was performed using Laemli electrophoresis buffer (0.1% SDS, 25 mM Tris, 192 mM glycine) at 200 V, constant voltage, for one hour. Upon completion of electrophoresis, the proteins were transferred to Immun-Blot PVDF membranes (BioRad #162-0238) in ice-cold 20% methanol in 25 mM Tris, 192 mM glycine for 2 hr at 0.5 Amps, constant current/blotting apparatus. The membranes were then cut vertically between molecular weight markers and in half at the 64 kDa marker to generate pieces for screening of higher molecular weight proteins (e.g., FAK) and lower molecular weight proteins (e.g., MEK and GAPDH). […]

Test [2] relates to SKOV3 cells. Put plainly: Boyden chamber chemotaxis/migration of SKOV3 cells. The format is cell-based. The protocol:
A2780 (FIG. 10a) and SKOV3 (FIG. 10b) cells were incubated with the indicated concentrations of Å6 peptide for 30 min at 37° C. Aliquots representing 6,000 cells were placed on quadruplicate, CnI-coated filters (8 μm pores) in Boyden chambers and the cells allowed to migrate overnight in response to 10 ng/ml VEGF in NIH3T3-conditioned media containing the indicated concentrations of Å6. Upon completion of migration, the apical surfaces of the membranes were wiped clean and the migrating cells on the basal surface were stained with Geimsa stain and the cells present in representative fields of the membranes counted. Data represent the averages+/−standard deviations obtained from the replicate filters. […] This provides further confirmation that CD44 is the target for the Å6 peptide.
SKOV3 cells are harvested by trypsinization and washed once with RPMI−0.5% BSA. Next, the cells are re-suspended in RPMI+0.5% BSA @ 6E4/mL (6000 cells/100 μL). The peptide is pre-treated with 500 μL of cells added to 500 μL peptide NASAPPEE (2× concentration, final conc. at 100, 10, 1, 0.1, 0.01, 0.001 uM) and the mixture incubated 30 minutes at 37° C., under 5% CO2. The Boyden chamber is assembled by: Placing in the bottom chambers: 220 μL of serum/BSA free DMEM or NIH3T3CM+10 ng/ml VEGF or NIH3T3CM+10 ng/ml VEGF+peptide. Place 8 μm filters on the top of the bottom chambers. The 8 μm filters are coated with 1 mg/ml collagen I at 4° C. overnight, washed with PBS twice, air dry before use. Add 200 μL of cells with or without peptide pretreatment to the top of Boyden chamber. Note that the peptide is in both top and bottom chambers. Cells migrate overnight at 37° C., under 5% CO2 in incubator. Next, Boyden chambers are disassembled the and filters collected. The cells on the filters after collection are treated with −20° C. methanol for 3 minutes at room temperature and stained with 30% Geimsa for 7 minutes at room temperature, and washed with water twice. The filters are mounted on slides, air dried and the cells counted.
Cell numbers were obtained by counting the cells in four fields of filters using a 40× objective. The cells migrating into the bottom chambers were also counted as follows: a) 200 μL fluid in the bottom chamber was transferred to a well of 96-well plate; b) The plate was centrifuged at 1200 rpm for 5 minutes; c) 180 μL of supernatant was removed; d) The cell pellet was resuspended with the remaining 20 μL fluid and the cells counted using a hemocytometer. […] This compares favorably to the Å6 peptide which is effective between 5 μM and 100 nM.

In the case of “acetyl-Lys-Pro-Ser-Ser-Pro-Pro-Glu-Glu-NH2 (Ac-KPSSPPEE-NH2) [Å6]”, in test [1] (CM/V cultured samples), the “total PKCalpha” value is reported as “decreased”. Further, the pPKCa/PKCa entry in test [1] (CM/V in the absence of HA) is “decreased”. Also, the pPKCa/PKCa result in test [1] (in the presence of HA) is listed as “appears to have further enhanced”. In addition, the SKOV3 migration entry in test [2] (10 ng/ml VEGF in NIH3T3-conditioned media, overnight) was “strong inhibition”. In test [2] (SKOV3), the “cell migration inhibition, lower end of effective concentration range” value worked out at 100 nM and the “cell migration inhibition, upper end of effective concentration range” value stood at 5 µM.

For the origin of these results see US8697629B2, “Modulation of intracellular signaling” (Angstrom Pharmaceuticals, Inc., priority 2010, dated 2014).
